How the values were obtained:
Assay in all cases: KinomeScan
Format in all cases: binding
Conditions in all cases: 1 μM
EPHA2 = target: T1, EPHA2 (Homo sapiens, UniProt P29317)
T1 construct: purchased DiscoverX (KINOMEscan)

[1] = target: T2, ABL1(T315I)-nonphosphorylated (Homo sapiens, UniProt P00519, T315I)
T2 construct: purchased DiscoverX (KINOMEscan)

MLK2 = target: T3, MLK2 (Homo sapiens, UniProt Q02779)
T3 construct: purchased DiscoverX (KINOMEscan)

MEK2 = target: T4, MEK2 (Homo sapiens, UniProt P36507)
T4 construct: purchased DiscoverX (KINOMEscan)

MKNK1 = target: T5, MKNK1 (Homo sapiens, UniProt Q9BUB5)
T5 construct: purchased DiscoverX (KINOMEscan)

MTOR = target: T6, MTOR (Homo sapiens, UniProt P42345)
T6 construct: purchased DiscoverX (KINOMEscan)

BRSK2 = target: T7, BRSK2 (Homo sapiens, UniProt Q8IWQ3)
T7 construct: purchased DiscoverX (KINOMEscan)

MELK = target: T8, MELK (Homo sapiens, UniProt Q14680)
T8 construct: purchased DiscoverX (KINOMEscan)

CDK7 = target: T9, CDK7 (Homo sapiens, UniProt P50613)
T9 construct: purchased DiscoverX (KINOMEscan)

MYLK = target: T10, MYLK (Homo sapiens, UniProt Q15746)
T10 construct: purchased DiscoverX (KINOMEscan)

FYN = target: T11, FYN (Homo sapiens, UniProt P06241)
T11 construct: purchased DiscoverX (KINOMEscan)

[2] = target: T12, ABL1(Q252H)-nonphosphorylated (Homo sapiens, UniProt P00519, Q252H)
T12 construct: purchased DiscoverX (KINOMEscan)

MYO3B = target: T13, MYO3B (Homo sapiens, UniProt Q8WXR4)
T13 construct: purchased DiscoverX (KINOMEscan)

CAMK4 = target: T14, CAMK4 (Homo sapiens, UniProt Q16566)
T14 construct: purchased DiscoverX (KINOMEscan)

IRAK4 = target: T15, IRAK4 (Homo sapiens, UniProt Q9NWZ3)
T15 construct: purchased DiscoverX (KINOMEscan)

YSK4 = target: T16, YSK4 (Homo sapiens, UniProt Q56UN5)
T16 construct: purchased DiscoverX (KINOMEscan)

MLK3 = target: T17, MLK3 (Homo sapiens, UniProt Q16584)
T17 construct: purchased DiscoverX (KINOMEscan)

CASK = target: T18, CASK (Homo sapiens, UniProt O14936)
T18 construct: purchased DiscoverX (KINOMEscan)

NEK4 = target: T19, NEK4 (Homo sapiens, UniProt P51957)
T19 construct: purchased DiscoverX (KINOMEscan)

AKT1 = target: T20, AKT1 (Homo sapiens, UniProt P31749)
T20 construct: purchased DiscoverX (KINOMEscan)

SRPK1 = target: T21, SRPK1 (Homo sapiens, UniProt Q96SB4)
T21 construct: purchased DiscoverX (KINOMEscan)

TAOK2 = target: T22, TAOK2 (Homo sapiens, UniProt Q9UL54)
T22 construct: purchased DiscoverX (KINOMEscan)

ERK5 = target: T23, ERK5 (Homo sapiens, UniProt Q13164)
T23 construct: purchased DiscoverX (KINOMEscan)

BMPR1B = target: T24, BMPR1B (Homo sapiens, UniProt O00238)
T24 construct: purchased DiscoverX (KINOMEscan)

GAK = target: T25, GAK (Homo sapiens, UniProt O14976)
T25 construct: purchased DiscoverX (KINOMEscan)

CSNK1A1 = target: T26, CSNK1A1 (Homo sapiens, UniProt P48729)
T26 construct: purchased DiscoverX (KINOMEscan)

NEK11 = target: T27, NEK11 (Homo sapiens, UniProt Q8NG66)
T27 construct: purchased DiscoverX (KINOMEscan)

MARK3 = target: T28, MARK3 (Homo sapiens, UniProt P27448)
T28 construct: purchased DiscoverX (KINOMEscan)

EGFR(G719S) = target: T29, EGFR(G719S) (Homo sapiens, UniProt P00533, G719S)
T29 construct: purchased DiscoverX (KINOMEscan)

STK33 = target: T30, STK33 (Homo sapiens, UniProt Q9BYT3)
T30 construct: purchased DiscoverX (KINOMEscan)

BRSK1 = target: T31, BRSK1 (Homo sapiens, UniProt Q8TDC3)
T31 construct: purchased DiscoverX (KINOMEscan)

BRAF = target: T32, BRAF (Homo sapiens, UniProt P15056)
T32 construct: purchased DiscoverX (KINOMEscan)

ERK8 = target: T33, ERK8 (Homo sapiens, UniProt Q8TD08)
T33 construct: purchased DiscoverX (KINOMEscan)

[3] = target: T34, ABL1(E255K)-phosphorylated (Homo sapiens, UniProt P00519, E255K)
T34 construct: purchased DiscoverX (KINOMEscan)

YES = target: T35, YES (Homo sapiens, UniProt P07947)
T35 construct: purchased DiscoverX (KINOMEscan)

AKT3 = target: T36, AKT3 (Homo sapiens, UniProt Q9Y243)
T36 construct: purchased DiscoverX (KINOMEscan)

DRAK2 = target: T37, DRAK2 (Homo sapiens, UniProt O94768)
T37 construct: purchased DiscoverX (KINOMEscan)

CLK2 = target: T38, CLK2 (Homo sapiens, UniProt P49760)
T38 construct: purchased DiscoverX (KINOMEscan)

T8 sequence (Q14680 whole entry): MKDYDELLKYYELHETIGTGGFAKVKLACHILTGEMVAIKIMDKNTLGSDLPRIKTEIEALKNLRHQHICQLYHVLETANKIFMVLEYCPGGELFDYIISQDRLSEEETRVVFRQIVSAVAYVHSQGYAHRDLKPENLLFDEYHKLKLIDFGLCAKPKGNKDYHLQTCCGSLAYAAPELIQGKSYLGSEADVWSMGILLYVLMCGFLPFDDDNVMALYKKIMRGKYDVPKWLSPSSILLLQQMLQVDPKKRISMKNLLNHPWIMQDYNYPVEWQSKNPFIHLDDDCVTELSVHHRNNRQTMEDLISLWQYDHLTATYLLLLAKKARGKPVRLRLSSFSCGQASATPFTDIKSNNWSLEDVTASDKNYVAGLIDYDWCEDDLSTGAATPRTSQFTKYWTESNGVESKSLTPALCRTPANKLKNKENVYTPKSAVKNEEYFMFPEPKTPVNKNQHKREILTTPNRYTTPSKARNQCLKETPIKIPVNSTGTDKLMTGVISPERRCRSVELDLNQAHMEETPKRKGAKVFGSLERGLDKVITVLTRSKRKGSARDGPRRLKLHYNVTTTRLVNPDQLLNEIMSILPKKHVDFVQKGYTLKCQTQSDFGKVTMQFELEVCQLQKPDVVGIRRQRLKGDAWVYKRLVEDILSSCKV
T18 sequence (O14936 whole entry): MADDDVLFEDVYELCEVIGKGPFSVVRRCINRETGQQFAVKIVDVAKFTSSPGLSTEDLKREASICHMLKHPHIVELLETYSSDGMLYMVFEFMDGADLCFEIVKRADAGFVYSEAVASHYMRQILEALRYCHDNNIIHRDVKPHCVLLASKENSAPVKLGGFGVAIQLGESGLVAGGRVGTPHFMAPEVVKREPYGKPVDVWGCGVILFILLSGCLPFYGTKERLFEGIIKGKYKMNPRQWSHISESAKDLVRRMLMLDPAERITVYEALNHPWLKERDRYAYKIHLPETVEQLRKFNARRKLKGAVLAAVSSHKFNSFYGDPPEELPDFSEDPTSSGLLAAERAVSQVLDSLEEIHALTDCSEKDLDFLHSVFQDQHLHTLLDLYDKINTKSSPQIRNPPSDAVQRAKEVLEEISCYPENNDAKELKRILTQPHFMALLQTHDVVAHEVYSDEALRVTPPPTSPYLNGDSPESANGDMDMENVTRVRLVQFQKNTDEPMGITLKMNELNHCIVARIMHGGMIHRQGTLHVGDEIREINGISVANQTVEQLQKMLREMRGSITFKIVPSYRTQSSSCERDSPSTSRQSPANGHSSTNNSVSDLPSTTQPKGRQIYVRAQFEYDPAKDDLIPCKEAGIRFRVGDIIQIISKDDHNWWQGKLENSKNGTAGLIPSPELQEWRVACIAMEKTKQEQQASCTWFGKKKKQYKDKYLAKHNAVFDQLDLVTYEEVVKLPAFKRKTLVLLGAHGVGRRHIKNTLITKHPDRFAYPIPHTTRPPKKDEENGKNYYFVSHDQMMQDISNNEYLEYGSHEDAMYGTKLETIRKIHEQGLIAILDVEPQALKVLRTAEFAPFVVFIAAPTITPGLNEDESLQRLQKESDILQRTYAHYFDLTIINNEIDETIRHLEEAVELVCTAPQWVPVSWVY
T27 sequence (Q8NG66 whole entry): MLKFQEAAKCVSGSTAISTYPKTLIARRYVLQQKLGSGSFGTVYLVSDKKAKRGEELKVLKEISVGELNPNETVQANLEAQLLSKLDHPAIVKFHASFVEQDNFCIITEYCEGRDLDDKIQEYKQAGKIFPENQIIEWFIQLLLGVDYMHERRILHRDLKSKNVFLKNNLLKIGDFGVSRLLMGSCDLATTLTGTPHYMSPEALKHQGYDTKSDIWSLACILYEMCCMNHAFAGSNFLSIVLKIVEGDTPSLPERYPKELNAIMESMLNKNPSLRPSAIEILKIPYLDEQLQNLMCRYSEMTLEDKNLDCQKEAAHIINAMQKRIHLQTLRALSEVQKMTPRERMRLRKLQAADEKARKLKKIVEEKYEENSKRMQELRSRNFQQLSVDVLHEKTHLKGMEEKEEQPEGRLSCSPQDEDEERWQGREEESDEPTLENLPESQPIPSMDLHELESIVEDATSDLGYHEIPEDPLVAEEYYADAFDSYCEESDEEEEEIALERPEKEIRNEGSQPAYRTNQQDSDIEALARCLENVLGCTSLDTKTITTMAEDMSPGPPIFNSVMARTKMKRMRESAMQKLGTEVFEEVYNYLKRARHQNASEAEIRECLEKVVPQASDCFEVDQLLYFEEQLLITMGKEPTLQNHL
T31 sequence (Q8TDC3 whole entry): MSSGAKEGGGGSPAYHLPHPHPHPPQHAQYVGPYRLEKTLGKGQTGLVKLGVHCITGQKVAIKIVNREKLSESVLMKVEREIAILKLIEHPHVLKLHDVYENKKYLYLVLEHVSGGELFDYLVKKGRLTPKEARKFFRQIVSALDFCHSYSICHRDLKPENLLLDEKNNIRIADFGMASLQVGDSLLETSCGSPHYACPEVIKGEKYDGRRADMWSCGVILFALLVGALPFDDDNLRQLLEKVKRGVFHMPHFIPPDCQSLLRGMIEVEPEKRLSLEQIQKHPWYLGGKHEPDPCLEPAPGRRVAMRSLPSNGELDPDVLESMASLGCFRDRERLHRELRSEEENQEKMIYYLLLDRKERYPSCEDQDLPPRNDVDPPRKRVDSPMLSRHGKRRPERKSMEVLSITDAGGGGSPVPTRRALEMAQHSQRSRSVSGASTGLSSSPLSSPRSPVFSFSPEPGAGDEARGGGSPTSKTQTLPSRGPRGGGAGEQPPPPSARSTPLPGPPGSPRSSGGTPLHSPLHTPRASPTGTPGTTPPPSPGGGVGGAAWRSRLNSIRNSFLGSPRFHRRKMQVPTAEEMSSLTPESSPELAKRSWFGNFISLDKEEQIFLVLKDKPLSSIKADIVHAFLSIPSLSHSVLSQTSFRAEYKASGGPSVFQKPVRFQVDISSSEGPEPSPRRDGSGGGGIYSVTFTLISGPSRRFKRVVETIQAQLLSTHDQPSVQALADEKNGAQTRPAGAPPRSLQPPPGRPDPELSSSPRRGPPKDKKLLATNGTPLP
T3 sequence (Q02779 whole entry): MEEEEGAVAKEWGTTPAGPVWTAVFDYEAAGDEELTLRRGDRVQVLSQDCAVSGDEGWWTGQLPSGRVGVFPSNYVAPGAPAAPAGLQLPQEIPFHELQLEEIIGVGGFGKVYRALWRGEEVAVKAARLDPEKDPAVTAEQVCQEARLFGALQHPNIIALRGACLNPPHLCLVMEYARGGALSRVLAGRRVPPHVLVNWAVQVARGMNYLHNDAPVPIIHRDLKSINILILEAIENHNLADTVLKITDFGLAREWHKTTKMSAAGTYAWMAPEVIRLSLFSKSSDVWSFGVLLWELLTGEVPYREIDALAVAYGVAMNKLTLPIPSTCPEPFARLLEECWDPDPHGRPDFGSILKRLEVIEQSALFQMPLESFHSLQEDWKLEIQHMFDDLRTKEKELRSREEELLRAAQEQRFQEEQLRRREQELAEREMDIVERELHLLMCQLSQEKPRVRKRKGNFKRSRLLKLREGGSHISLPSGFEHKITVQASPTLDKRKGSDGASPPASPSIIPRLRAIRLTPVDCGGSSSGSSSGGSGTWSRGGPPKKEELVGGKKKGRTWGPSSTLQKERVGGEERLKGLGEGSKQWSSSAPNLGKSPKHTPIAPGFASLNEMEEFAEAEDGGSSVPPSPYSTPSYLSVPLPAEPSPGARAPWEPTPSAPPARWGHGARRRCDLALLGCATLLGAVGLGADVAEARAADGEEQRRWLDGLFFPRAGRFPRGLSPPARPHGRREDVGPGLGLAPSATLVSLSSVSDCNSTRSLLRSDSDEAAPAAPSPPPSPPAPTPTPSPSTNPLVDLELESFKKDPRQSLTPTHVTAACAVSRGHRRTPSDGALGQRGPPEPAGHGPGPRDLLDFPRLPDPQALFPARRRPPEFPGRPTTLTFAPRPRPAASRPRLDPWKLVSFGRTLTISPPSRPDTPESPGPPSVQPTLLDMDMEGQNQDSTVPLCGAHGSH
T14 sequence (Q16566 whole entry): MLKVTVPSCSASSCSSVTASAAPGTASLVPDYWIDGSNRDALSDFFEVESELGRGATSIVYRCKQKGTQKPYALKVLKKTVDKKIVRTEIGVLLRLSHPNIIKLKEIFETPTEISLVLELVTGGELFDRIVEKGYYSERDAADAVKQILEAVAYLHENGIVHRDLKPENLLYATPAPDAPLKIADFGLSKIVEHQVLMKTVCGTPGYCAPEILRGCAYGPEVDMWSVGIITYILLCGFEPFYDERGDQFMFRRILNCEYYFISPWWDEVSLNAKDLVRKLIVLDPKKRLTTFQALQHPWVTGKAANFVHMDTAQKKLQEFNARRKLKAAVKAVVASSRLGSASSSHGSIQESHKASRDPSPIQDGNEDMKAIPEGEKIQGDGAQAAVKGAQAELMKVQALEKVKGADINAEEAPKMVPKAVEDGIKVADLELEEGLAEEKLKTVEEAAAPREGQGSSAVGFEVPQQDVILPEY
T36 sequence (Q9Y243 whole entry): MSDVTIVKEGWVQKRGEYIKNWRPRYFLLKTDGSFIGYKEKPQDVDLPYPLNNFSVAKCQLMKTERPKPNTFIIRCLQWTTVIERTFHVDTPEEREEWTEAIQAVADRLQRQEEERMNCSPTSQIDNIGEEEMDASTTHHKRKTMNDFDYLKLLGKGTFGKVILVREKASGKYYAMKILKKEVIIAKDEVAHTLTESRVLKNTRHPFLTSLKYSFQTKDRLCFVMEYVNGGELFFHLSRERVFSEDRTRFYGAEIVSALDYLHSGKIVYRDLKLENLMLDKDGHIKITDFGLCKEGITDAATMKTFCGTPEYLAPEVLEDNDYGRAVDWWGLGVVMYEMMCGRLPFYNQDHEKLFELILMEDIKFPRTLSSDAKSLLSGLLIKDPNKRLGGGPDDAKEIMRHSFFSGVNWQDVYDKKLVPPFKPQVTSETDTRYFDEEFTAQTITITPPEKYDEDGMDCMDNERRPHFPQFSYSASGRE

COc1cc(/C=C2\N=C(N)NC2=O)ccc1O [Polyandrocarpamine A]
Score (EPHA2): 100
Score [1]: 67
Score (MLK2): 100
Score (MEK2): 100
Score (MKNK1): 63
Score (MTOR): 84
Score (BRSK2): 100
Score (MELK): 100
Score (CDK7): 100
Score (MYLK): 98
Score (FYN): 100
Score [2]: 100
Score (MYO3B): 88
Score (CAMK4): 94
Score (IRAK4): 46
Score (YSK4): 100
Score (MLK3): 100
Score (CASK): 100
Score (NEK4): 100
Score (AKT1): 100
Score (SRPK1): 100
Score (TAOK2): 100
Score (ERK5): 100
Score (BMPR1B): 42
Score (GAK): 100
Score (CSNK1A1): 100
Score (NEK11): 100
Score (MARK3): 100
Score (EGFR(G719S)): 100
Score (STK33): 100
Score (BRSK1): 100
Score (BRAF): 100
Score (ERK8): 67
Score [3]: 100
Score (YES): 100
Score (AKT3): 100
Score (DRAK2): 51
Score (CLK2): 45
